{"source": "patent US20250360235A1", "about": "“RADI[…] AND METHOD FOR RADIOLABELLING” (Telix Innovations SA, priority 2024, published 2025)", "experiment": "Radiochemical purity by iTLC over time after radiolabelling", "type": "physicochemical", "protocol": "Table 1 to Table 5 show the results of various radiolabelling experiments on radiochemical purity and the chelation yield. The radiolabelling experiments in the tables are carried out as described in: • Example 1 for when the gallium-68 source is GE Liquid target generator and EZAG GalliaPharm generator; • Example 2 for when the gallium-68 source is IRE Galli Eo generator; • Example 3 for when the gallium-68 source is GE solid target generator;\nHowever, the experiments were carried out with the amount of ascorbic acid as indicated in the Tables 1 to 5, and the activity as indicated in the Tables 1 to 5. Radiochemical purities were measured at various times (T0, T1, T4, T6) after the radiolabelled experiments have been conducted.\nThe kits of Example 1, Example 2 or Example 3, with amounts of ascorbic acid as set out in Table 7 were used in the experiments for the ascorbic acid bracketing matrix. Three strengths of [^68Ga]Ga-PSMA-11 will be tested, i.e. 50 mCi/ml, 7 mCi/ml and 1 mCi/ml. Radiochemical purity was determined at different time points (TO, T1, T4 or T6), as set out in Table 7.", "key": {"[1]": {"details": "1 mg ascorbic acid, 58.7-71.1 mCi, 7.47-8.99 mCi/mL, GE Liquid target, average of 3, T0"}, "[2]": {"details": "1 mg ascorbic acid, 58.7-71.1 mCi, 7.47-8.99 mCi/mL, GE Liquid target, average of 3, T4 (4 h)"}, "[3]": {"details": "1 mg ascorbic acid, 58.7-71.1 mCi, 7.47-8.99 mCi/mL, GE Liquid target, n=3, T0"}, "[4]": {"details": "1 mg ascorbic acid, 58.7-71.1 mCi, 7.47-8.99 mCi/mL, GE Liquid target, n=3, T4 (4 h)"}, "[5]": {"details": "2.5 mg ascorbic acid, 49.9-76.9 mCi, 6.31-9.72 mCi/mL, GE Liquid target, average of 3, T0"}, "[6]": {"details": "2.5 mg ascorbic acid, 49.9-76.9 mCi, 6.31-9.72 mCi/mL, GE Liquid target, average of 3, T4 (4 h)"}, "[7]": {"details": "2.5 mg ascorbic acid, 49.9-76.9 mCi, 6.31-9.72 mCi/mL, GE Liquid target, n=3, T0"}, "[8]": {"details": "2.5 mg ascorbic acid, 49.9-76.9 mCi, 6.31-9.72 mCi/mL, GE Liquid target, n=3, T4 (4 h)"}, "[9]": {"details": "5 mg ascorbic acid, 60-69.9 mCi, 7.61-8.81 mCi/mL, 3 × GE Liquid Target, 3 × EZAG GalliaPharm, average of 6, T0"}, "[10]": {"details": "5 mg ascorbic acid, 60-69.9 mCi, 7.61-8.81 mCi/mL, 3 × GE Liquid Target, 3 × EZAG GalliaPharm, average of 6, T4 (4 h)"}, "[11]": {"details": "5 mg ascorbic acid, 60-69.9 mCi, 7.61-8.81 mCi/mL, 3 × GE Liquid Target, 3 × EZAG GalliaPharm, n=6, T0"}, "[12]": {"details": "5 mg ascorbic acid, 60-69.9 mCi, 7.61-8.81 mCi/mL, 3 × GE Liquid Target, 3 × EZAG GalliaPharm, n=6, T4 (4 h)"}, "[13]": {"details": "10 mg ascorbic acid, 458-500 mCi, 43.4-47.3 mCi/mL, GE Solid Target, average of 3, T0"}, "[14]": {"details": "10 mg ascorbic acid, 458-500 mCi, 43.4-47.3 mCi/mL, GE Solid Target, average of 3, T4 (4 h)"}, "[15]": {"details": "10 mg ascorbic acid, 458-500 mCi, 43.4-47.3 mCi/mL, GE Solid Target, n=3, T0"}, "[16]": {"details": "10 mg ascorbic acid, 458-500 mCi, 43.4-47.3 mCi/mL, GE Solid Target, n=3, T4 (4 h)"}, "[17]": {"details": "10 mg ascorbic acid, 514-520 mCi, 49.0-66.1 mCi/mL, GE Solid Target, average of 3, T0"}, "[18]": {"details": "10 mg ascorbic acid, 514-520 mCi, 49.0-66.1 mCi/mL, GE Solid Target, average of 3, T6 (6 h)"}, "[19]": {"details": "10 mg ascorbic acid, 514-520 mCi, 49.0-66.1 mCi/mL, GE Solid Target, n=3, T0"}, "[20]": {"details": "10 mg ascorbic acid, 514-520 mCi, 49.0-66.1 mCi/mL, GE Solid Target, n=3, T6 (6 h)"}}}
{"molecule": "O=C([O-])CN(CCN(CC(=O)[O-])Cc1cc(CCC(=O)NCCCCCC(=O)NCCCC[C@H](NC(=O)N[C@@H](CCC(=O)O)C(=O)O)C(=O)O)ccc1[O-])Cc1cc(CCC(=O)O)ccc1[O-].[68Ga+3].[OH3+]", "note": "[[^68Ga]PSMA-11, gallium-68 radiolabelled Glu-urea-Lys-HBED-CC (gozetotide or PSMA-11)]", "values": [{"measurement": "Radiochemical Purity (iTLC) Free and Colloidal Ga-68 (%)", "setting": "[1]", "value": 0, "unit": "%"}, {"measurement": "Radiochemical Purity (iTLC) Ga-68 PSMA-11 (%)", "setting": "[1]", "value": 100, "unit": "%"}, {"measurement": "Radiochemical Purity (iTLC) Free and Colloidal Ga-68 (%)", "setting": "[2]", "value": 0, "unit": "%"}, {"measurement": "Radiochemical Purity (iTLC) Ga-68 PSMA-11 (%)", "setting": "[2]", "value": 100, "unit": "%"}, {"measurement": "Radiochemical Purity (iTLC) Free and Colloidal Ga-68 (%)", "setting": "[3]", "value": "C (C = conforms to specifications)"}, {"measurement": "Radiochemical Purity (iTLC) Ga-68 PSMA-11 (%)", "setting": "[3]", "value": "C (C = conforms to specifications)"}, {"measurement": "Radiochemical Purity (iTLC) Free and Colloidal Ga-68 (%)", "setting": "[4]", "value": "C (C = conforms to specifications)"}, {"measurement": "Radiochemical Purity (iTLC) Ga-68 PSMA-11 (%)", "setting": "[4]", "value": "C (C = conforms to specifications)"}, {"measurement": "Radiochemical Purity (iTLC) Free and Colloidal Ga-68 (%)", "setting": "[5]", "value": 0, "unit": "%"}, {"measurement": "Radiochemical Purity (iTLC) Ga-68 PSMA-11 (%)", "setting": "[5]", "value": 100, "unit": "%"}, {"measurement": "Radiochemical Purity (iTLC) Free and Colloidal Ga-68 (%)", "setting": "[6]", "value": 0, "unit": "%"}, {"measurement": "Radiochemical Purity (iTLC) Ga-68 PSMA-11 (%)", "setting": "[6]", "value": 100, "unit": "%"}, {"measurement": "Radiochemical Purity (iTLC) Free and Colloidal Ga-68 (%)", "setting": "[7]", "value": "C (C = conforms to specifications)"}, {"measurement": "Radiochemical Purity (iTLC) Ga-68 PSMA-11 (%)", "setting": "[7]", "value": "C (C = conforms to specifications)"}, {"measurement": "Radiochemical Purity (iTLC) Free and Colloidal Ga-68 (%)", "setting": "[8]", "value": "C (C = conforms to specifications)"}, {"measurement": "Radiochemical Purity (iTLC) Ga-68 PSMA-11 (%)", "setting": "[8]", "value": "C (C = conforms to specifications)"}, {"measurement": "Radiochemical Purity (iTLC) Free and Colloidal Ga-68 (%)", "setting": "[9]", "value": 0, "unit": "%"}, {"measurement": "Radiochemical Purity (iTLC) Ga-68 PSMA-11 (%)", "setting": "[9]", "value": 100, "unit": "%"}, {"measurement": "Radiochemical Purity (iTLC) Free and Colloidal Ga-68 (%)", "setting": "[10]", "value": 0, "unit": "%"}, {"measurement": "Radiochemical Purity (iTLC) Ga-68 PSMA-11 (%)", "setting": "[10]", "value": 100, "unit": "%"}, {"measurement": "Radiochemical Purity (iTLC) Free and Colloidal Ga-68 (%)", "setting": "[11]", "value": "C (C = conforms to specifications)"}, {"measurement": "Radiochemical Purity (iTLC) Ga-68 PSMA-11 (%)", "setting": "[11]", "value": "C (C = conforms to specifications)"}, {"measurement": "Radiochemical Purity (iTLC) Free and Colloidal Ga-68 (%)", "setting": "[12]", "value": "C (C = conforms to specifications)"}, {"measurement": "Radiochemical Purity (iTLC) Ga-68 PSMA-11 (%)", "setting": "[12]", "value": "C (C = conforms to specifications)"}, {"measurement": "Radiochemical Purity (iTLC) Free and Colloidal Ga-68 (%)", "setting": "[13]", "value": 0, "unit": "%"}, {"measurement": "Radiochemical Purity (iTLC) Ga-68 PSMA-11 (%)", "setting": "[13]", "value": 100, "unit": "%"}, {"measurement": "Radiochemical Purity (iTLC) Free and Colloidal Ga-68 (%)", "setting": "[14]", "value": 0, "unit": "%"}, {"measurement": "Radiochemical Purity (iTLC) Ga-68 PSMA-11 (%)", "setting": "[14]", "value": 100, "unit": "%"}, {"measurement": "Radiochemical Purity (iTLC) Free and Colloidal Ga-68 (%)", "setting": "[15]", "value": "C (C = conforms to specifications)"}, {"measurement": "Radiochemical Purity (iTLC) Ga-68 PSMA-11 (%)", "setting": "[15]", "value": "C (C = conforms to specifications)"}, {"measurement": "Radiochemical Purity (iTLC) Free and Colloidal Ga-68 (%)", "setting": "[16]", "value": "C (C = conforms to specifications)"}, {"measurement": "Radiochemical Purity (iTLC) Ga-68 PSMA-11 (%)", "setting": "[16]", "value": "C (C = conforms to specifications)"}, {"measurement": "Radiochemical Purity (iTLC) Free and Colloidal Ga-68 (%)", "setting": "[17]", "value": 0, "unit": "%"}, {"measurement": "Radiochemical Purity (iTLC) Ga-68 PSMA-11 (%)", "setting": "[17]", "value": 100, "unit": "%"}, {"measurement": "Radiochemical Purity (iTLC) Free and Colloidal Ga-68 (%)", "setting": "[18]", "value": 0, "unit": "%"}, {"measurement": "Radiochemical Purity (iTLC) Ga-68 PSMA-11 (%)", "setting": "[18]", "value": 100, "unit": "%"}, {"measurement": "Radiochemical Purity (iTLC) Free and Colloidal Ga-68 (%)", "setting": "[19]", "value": "C (C = conforms to specifications)"}, {"measurement": "Radiochemical Purity (iTLC) Ga-68 PSMA-11 (%)", "setting": "[19]", "value": "C (C = conforms to specifications)"}, {"measurement": "Radiochemical Purity (iTLC) Free and Colloidal Ga-68 (%)", "setting": "[20]", "value": "C (C = conforms to specifications)"}, {"measurement": "Radiochemical Purity (iTLC) Ga-68 PSMA-11 (%)", "setting": "[20]", "value": "C (C = conforms to specifications)"}, {"measurement": "Radiochemical Purity (iTLC) Free and Colloidal Ga-68 (%)", "setting": "15 mg ascorbic acid, 10.0-18.4 mCi, 0.95-1.77 mCi/mL, 1 × EZAG GalliaPharm, 2 × IRE Galli Eo, average of 3, T0", "value": 0, "unit": "%"}]}
